Reference: ChEMBL document CHEMBL1255210, “Discovery of pyrrolopyridazines as novel DGAT1 inhibitors” (Bioorg Med Chem Lett, 2010)

Assays:
[1] = target: T1, Diacylglycerol O-acyltransferase 1 (Homo sapiens, UniProt O75907); assay: Inhibition of human liver flag-tagged DGAT1 expressed in baculovirus infected insect cells after 2 hrs
T1 sequence (O75907 whole entry): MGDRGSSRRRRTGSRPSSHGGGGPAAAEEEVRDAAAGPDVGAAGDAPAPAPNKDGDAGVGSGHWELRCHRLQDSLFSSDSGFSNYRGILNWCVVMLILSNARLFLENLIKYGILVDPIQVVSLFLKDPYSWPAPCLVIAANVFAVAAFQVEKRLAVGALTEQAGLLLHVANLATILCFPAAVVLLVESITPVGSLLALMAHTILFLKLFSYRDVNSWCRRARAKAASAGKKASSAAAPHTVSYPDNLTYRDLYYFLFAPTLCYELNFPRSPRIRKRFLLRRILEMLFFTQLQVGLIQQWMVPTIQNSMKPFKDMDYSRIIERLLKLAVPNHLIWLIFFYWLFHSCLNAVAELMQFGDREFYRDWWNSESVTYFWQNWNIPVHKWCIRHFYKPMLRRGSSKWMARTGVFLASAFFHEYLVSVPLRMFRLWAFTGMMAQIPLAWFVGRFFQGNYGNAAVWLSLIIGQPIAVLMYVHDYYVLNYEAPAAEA

[2] = target: T2, Sterol O-acyltransferase 1 (Homo sapiens, UniProt P35610); assay: Inhibition of human full-length flag-tagged ACAT1 expressed in baculovirus infected insect cells after 10 mins
T2 sequence (P35610 whole entry): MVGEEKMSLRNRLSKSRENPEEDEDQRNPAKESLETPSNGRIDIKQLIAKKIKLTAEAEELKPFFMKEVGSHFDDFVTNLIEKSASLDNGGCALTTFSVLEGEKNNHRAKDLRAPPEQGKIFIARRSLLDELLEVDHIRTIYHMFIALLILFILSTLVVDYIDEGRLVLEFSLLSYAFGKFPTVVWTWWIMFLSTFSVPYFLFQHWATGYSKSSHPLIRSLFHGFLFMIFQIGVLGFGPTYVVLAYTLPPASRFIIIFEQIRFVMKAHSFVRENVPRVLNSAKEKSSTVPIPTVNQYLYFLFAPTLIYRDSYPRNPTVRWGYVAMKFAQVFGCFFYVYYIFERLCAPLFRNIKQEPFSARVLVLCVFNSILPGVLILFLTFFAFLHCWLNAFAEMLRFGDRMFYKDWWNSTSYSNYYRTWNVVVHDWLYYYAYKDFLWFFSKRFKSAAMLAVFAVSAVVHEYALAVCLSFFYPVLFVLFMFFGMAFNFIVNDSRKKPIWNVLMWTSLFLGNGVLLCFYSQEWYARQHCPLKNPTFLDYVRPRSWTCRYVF

[3] = target: T1, Diacylglycerol O-acyltransferase 1; assay: Inhibition of DGAT1 in human Caco-2 cells after 30 mins; format: cell-based

SMILES | IC50 [1] | IC50 [2] | IC50 [3]
CCOC(=O)c1c(C(=O)OCC)c2c(-c3ccccc3)cc(N3CCOCC3)nn2c1CCCOC | 0.27 µM | 2.56 µM | 
CCCc1c(-c2nc(-c3ccccc3)no2)c(C(=O)OCC)c2c(-c3ccccc3)cc(N3CCOCC3)nn12 | 0.18 µM | 1.59 µM | 0.2 µM
CCOC(=O)c1c(C(=O)OCC)c2c(-c3ccccc3)cc(N3CCOCC3)nn2c1-c1ccc(OCc2ccccc2)cc1 | 0.06 µM | < 0.1 µM | 
CCCc1c(-c2nc(CCO)no2)c(C(=O)OCC)c2c(-c3ccccc3)cc(N3CCOCC3)nn12 | 0.18 µM | 1.05 µM | 0.26 µM
CCOC(=O)c1c(C(=O)OCC)c2c(-c3ccccc3)cc(N3CCOCC3)nn2c1CCCN(C)C | > 1 µM |  | 
CCCc1c(-c2nc(C(C)C)no2)c(C(=O)OCC)c2c(-c3ccccc3)cc(N3CCOCC3)nn12 | 0.057 µM | < 1 µM | 0.051 µM
CCCc1c(-c2nc(CC)no2)c(C(=O)OCC)c2c(-c3ccccc3)cc(N3CCOCC3)nn12 | 0.11 µM | < 1 µM | 
CCOC(=O)c1c(C(=O)OCC)c2c(-c3ccccc3)cc(N3CCOCC3)nn2c1-c1ccc(N)cc1 | 0.63 µM | 1.05 µM | 
CCOC(=O)c1c(C(=O)OCC)c2c(-c3ccccc3)cc(N3CCOCC3)nn2c1C | 0.52 µM | 2.59 µM | 
CCCc1noc(-c2c(C(=O)OCC)c3c(-c4ccccc4)cc(N4CCOCC4)nn3c2CCC)n1 | 0.065 µM | 0.26 µM | 
CCOC(=O)c1c(C(=O)OCC)c2c(-c3ccccc3)cc(N3CCOCC3)nn2c1-c1ccc(-c2ccccc2)cc1 | 0.25 µM | < 0.3 µM | 
CCCc1c(C(=O)OCC)c(C(=O)OCC)c2c(-c3ccccc3)cc(N3CCC3)nn12 | 1.36 µM | 1.49 µM | 
CCCc1c(C(=O)OCC)c(C(=O)OCC)c2c(-c3ccccc3)cc(N3C[C@@H](C)O[C@@H](C)C3)nn12 | > 3 µM |  | 
CCOC(=O)c1c(C(=O)OCC)c2c(-c3ccccc3)cc(N3CCOCC3)nn2c1COC | 0.24 µM | 8.75 µM | 
CCCCCc1noc(-c2c(C(=O)OCC)c3c(-c4ccccc4)cc(N4CCOCC4)nn3c2CCC)n1 | 0.11 µM | < 1 µM | 
CCOC(=O)c1c(C(=O)OCC)c2c(-c3ccccc3)cc(N3CCOCC3)nn2c1-c1ccc(O)cc1 | 0.57 µM | 1.29 µM | 
C=CCc1c(C(=O)OCC)c(C(=O)OCC)c2c(-c3ccccc3)cc(N3CCOCC3)nn12 | 0.075 µM | 1.4 µM | 
CCCCc1noc(-c2c(C(=O)OCC)c3c(-c4ccccc4)cc(N4CCOCC4)nn3c2CCC)n1 | 0.073 µM | < 1 µM | 0.069 µM
CCOC(=O)c1cn2nc(N3CCOCC3)cc(-c3ccccc3)c2c1C(=O)OCC | > 3 µM |  | 

Further lines, results first:

IC50 [1] | IC50 [2] | IC50 [3] | SMILES
0.24 µM | 2.17 µM |  | CCOC(=O)c1c(C(=O)OCC)c2c(-c3ccccc3)cc(N3CCOCC3)nn2c1CC
> 3 µM |  |  | CCCc1c(C(=O)OCC)c(C(=O)OCC)c2c(C(C)(C)C)cc(N3CCOCC3)nn12
> 3 µM |  |  | CCCc1c(C(=O)OCC)c(C(=O)OCC)c2c(C3CCCCC3)cc(N3CCOCC3)nn12
0.12 µM | 1.3 µM |  | CCCc1c(C(=O)OCC)c(C(=O)OCC)c2c(-c3ccccc3)cc(N3CCCC3)nn12
0.12 µM | 1.3 µM |  | CCCc1c(C(=O)OCC)c(C(=O)OCC)c2c(-c3ccccc3)cc(N3CCOCC3)nn12
> 3 µM |  |  | CCCc1c(C(=O)OCC)c(C(=O)OCC)c2c(C3CCC3)cc(N3CCOCC3)nn12
0.16 µM | < 0.3 µM |  | CCCCc1c(C(=O)OCC)c(C(=O)OCC)c2c(-c3ccccc3)cc(N3CCOCC3)nn12
> 3 µM |  |  | CCCc1c(C(=O)OCC)c(C(=O)OCC)c2c(C3CCCC3)cc(N3CCOCC3)nn12
0.57 µM | 1.49 µM |  | CCCc1c(C(=O)OCC)c(C(=O)OCC)c2c(-c3ccccc3F)cc(N3CCOCC3)nn12
0.62 µM | 3.25 µM |  | CCOC(=O)c1c(C(=O)OCC)c2c(-c3ccccc3)cc(N3CCOCC3)nn2c1C1CC1
> 3 µM |  |  | CCCc1cc(N2CCOCC2)nn2c(CCC)c(C(=O)OCC)c(C(=O)OCC)c12
> 1 µM |  |  | CCOC(=O)c1c(C(=O)OCC)c2c(-c3ccccc3)cc(N3CCOCC3)nn2c1CCCO
